From ChEMBL document CHEMBL6153080, “Synthesis and Chemical Structure of the Cyclic Heptapeptide Stylissamide H” (J Nat Prod, 2025)

System: HeLa
Test: Cytotoxicity against human HeLa cells incubated for 24 hrs by WST-8 assay
Format: functional, cell-based

Row | SMILES | EC50 [µM]
1 | CCC(C)[C@@H]1NC(=O)[C@@H]2CCCN2C(=O)[C@H](Cc2c[nH]c3ccccc23)NC(=O)[C@@H]2CCCN2C(=O)[C@@H](C(C)C)NC(=O)[C@H](Cc2ccccc2)NC(=O)[C@H](CO)NC1=O (single isomer, unassigned) | 61
2 | CC[C@H](C)[C@@H]1NC(=O)[C@@H]2CCCN2C(=O)[C@H](Cc2c[nH]c3ccccc23)NC(=O)[C@@H]2CCCN2C(=O)[C@H](C(C)C)NC(=O)[C@H](Cc2ccccc2)NC(=O)[C@H](CO)NC1=O | 78
